This is an account of results in PMC4216499 (The Indian Journal of Medical Research, 2014).

“And” between values parts separate entries of the source, which are not always exact repeats. Equal entries are not always repeated.

One assay has as its system influenza A viruses. The conditions noted are these: cited from earlier work.
Assay [1] relates to pandemic (H1N1) 2009 viruses. The conditions noted are these: cited from earlier work.
In another assay the test system is A/H3N2 viruses. Details: species or system influenza A/H3N2 virus.
Another assay deals with Type B influenza. Also on record: species or system influenza B virus.
A further assay deals with pandemic (H1N1) viruses. Details: species or system pandemic influenza A (H1N1) virus.
In the next assay the test system is A/H1N1 viruses. Details: species or system influenza A/H1N1 virus.

For `NC12CC3CC(CC(C3)C1)C2` [amantadine], the Amantadine resistance in the assay with influenza A viruses is listed as 33-100%.

Consider `CCOC(=O)C1=C[C@@H](OC(CC)CC)[C@H](NC(C)=O)[C@@H](N)C1` [oseltamivir], for which, in assay [1], the oseltamivir-resistant viruses detected entry is recorded as “less than 1 per cent”. In addition, the oseltamivir-resistance conferring mutations result in the assay on A/H3N2 viruses was “none of the isolates had any of the reported oseltamivir-resistance conferring mutations”. The “oseltamivir susceptibility by NA gene markers” value in the assay on Type B influenza is on record as “all type B isolates were sensitive”. Also, in the assay on pandemic (H1N1) viruses, the “oseltamivir susceptibility by H274Y allelic discrimination” value is on record as “all were sensitive”. Further, in the assay with A/H1N1 viruses, the “Total resistant samples/Total samples” value was 35/38 and 15/23; the “oseltamivir resistant with H274Y mutation” value is on record as 82%.
